# US20110142882A1 (priority 2009, published 2011)
# Test system: small (about 50 μm-about 90 μm) arterioles of the cremaster muscle
# Design: species or system male Sprague-Dawley rats
# Details: rat, in vivo
structure (smiles),measurement,value
CC[N+](CC)(CC)CCOc1cccc(OCC[N+](CC)(CC)CC)c1OCC[N+](CC)(CC)CC [gallamine triethiodide],effect on microvessel diameter,Significant vasoconstriction
same,vasodilation over time (time-dependent effects control),No vasodilation
